These results are taken from patent US6500950B1, “Benzylidenepyrazolones, their preparation and use” (BASF Aktiengesellschaft, priority 1997, dated 2002).

Format in all cases: in vivo
The subject of one experiment is Chenopodium album. Nature of the experiment: Post-emergence greenhouse experiment, herbicidal activity. Conditions: post-emergence rate 0.125 or 0.0≅kg/ha of a.s., scale 0 to 100. An excerpt: (§1) The seeds of the test plants were sown separately for each species. For the post-emergence treatment, the test plants were first grown to a plant height of 3 to 15 cm, depending on the plant habit, and only then treated with the active compounds which had been suspended or emulsified in water. The test plants for this purpose were either sown directly and grown in the same containers, or they were first grown separately as seedlings and transplanted into the test containers a few days prior to treatment. The rate of application for the post-emergence treatment was 0.125 or 0.0≅kg/ha of a.s. Depending on the species, the plants were kept at 10-25° C. or 20-35° C. The test period extended over 2 to 4 weeks. During this time, the plants were tended, and their response to the individual treatments was evaluated. Evaluation was carried out using a scale from 0 to 100. 100 means no emergence of the plants, or complete destruction of at least the aerial parts, and 0 means no damage, or normal course of growth. The plants used in the greenhouse experiments were from the following species: [table]

The test system of another experiment is Polygonum persicaria. The experiment is described as above. Conditions: post-emergence rate 0.125 or 0.0≅kg/ha of a.s., scale 0 to 100.
Description: as §1

A further experiment relates to Echinochloa crus-galli. Described as above. Conditions: for Test plants [damage in %] Echinochloa crus-galli: post-emergence.
Description: as §1, with “The rate of application for the post-emergence treatment was 0.125 or 0.0≅kg/ha of a.s.” left out

Another experiment concerns Setaria faberii. The description is as above. Conditions: for Test plants [damage in %] Setaria faberii: post-emergence.
Description: as §1, with “The rate of application for the post-emergence treatment was 0.125 or 0.0≅kg/ha of a.s.” left out

The subject of another experiment is Zea mays. Briefly: Post-emergence greenhouse experiment, damage to useful plant. The settings on record: post-emergence rate 0.125 or 0.0≅kg/ha of a.s., scale 0 to 100.
Description: as §1

The next experiment concerns Amaranthus retroflexus. Briefly: Post-emergence greenhouse experiment, herbicidal activity.
Description: as §1, with “The rate of application for the post-emergence treatment was 0.125 or 0.0≅kg/ha of a.s.” left out, “growth.” for “growth. The plants used in the greenhouse experiments were from the following species: [table]”

The next experiment deals with Solanum nigrum. Described as above.
Description: as §1, with “The rate of application for the post-emergence treatment was 0.125 or 0.0≅kg/ha of a.s.” left out, “growth.” for “growth. The plants used in the greenhouse experiments were from the following species: [table]”

The mark [1] stands for this setting: greenhouse, post-emergence rate 0.125 or 0.0≅kg/ha of a.s., scale 0 to 100.
Where [2] appears, read: application rate 0.25 g/ha of a.s.
The mark [3] stands for this setting: application rate 0.5 g/ha of a.s.

As for `CCN1N=CC(=C(Cl)c2ccc(S(C)(=O)=O)c(C3=NOCC3)c2Cl)C1=O` [I.119, cis-4-[Chloro(2-chloro-3-(4,5-dihydroisoxazol-3-yl)-4-methylsulfonylphenyl)methylene]-2-ethyl-2,4-dihydropyrazol-3-one], the “damage of the plants” value in the experiment with Chenopodium album, in the experiment on Polygonum persicaria, in the experiment with Echinochloa crus-galli (setting [1]) and in the experiment on Setaria faberii (setting [1]) was more than 98% throughout. Also, the “Test plants [damage in %] Echinochloa crus-galli” value with Echinochloa crus-galli (setting [2]) and with Echinochloa crus-galli (setting [3]) was 100% in each case. The “Test plants [damage in %] Setaria faberii” value with Setaria faberii (setting [2]) and with Setaria faberii (setting [3]) was 100% throughout. Besides, the “damage of the useful plant maize” value with Zea mays is on record as 0%. The “Test plants [damage in %] Amaranthus retroflexus” value with Amaranthus retroflexus (setting [2]) and in the experiment with Amaranthus retroflexus (setting [3]) was 100% in each case. Moreover, the “Test plants [damage in %] Solanum nigrum” value in the experiment on Solanum nigrum (setting [2]) and in the experiment on Solanum nigrum (setting [3]) was 100% each time.
